Series [1] is described as follows: Example 5 urine odor panel ranking. Also on record: species or system Human. The procedure: Assessments were conducted the following day by asking panelists to rate each jar from 1 (least urine malodor) to 8 (most urine malodor). The results are set forth below in Tables 15-18.
The nature of series [2]: Solubility of powder in urine.
The nature of series [3]: Example 7 urine odor panel ranking (16 millimolar). On the set-up: species or system Human. The conditions noted are these: 16 millimolar in urine, 1 least, 10 most urine malodor. The procedure:
The effectiveness of various quinone compounds in reducing urine odor was compared. […] Human female urine was initially collected and pooled at Kimberly-Clark Corporation. The pooled urine was added to mason jars in 50-milliliter aliquots using an automated pipette aid. Powders of the aforementioned quinone compounds (commercially available from Sigma-Aldrich Chemical Co., Inc. of St. Louis, Missouri and Noveon Hilton Davis, Inc. of Cincinnati, Ohio) were weighed and placed into the mason jars containing 50 milliliters of urine so that the final concentration of the powder was 16 millimolar (equivalent to 1 wt. %). The mason jars were placed in an incubator overnight at 37° C. The experimental setup is set forth in more detail below in Table 21.
Jars were wrapped in foil and placed in an incubator at 37° C. overnight. The jars were divided into four groups (C-F), each sharing the same control jar of urine alone (no powder). Assessments were conducted the following day by asking panelists to rate each jar from 1 (least urine malodor) to 10 (most urine malodor).

The nature of series [4]: Example 4 urine odor panel ranking. The following applies: for Average Rankings, Avg. Score / Urine Odor Ranking 2 (number of panelists) / Urine Odor Ranking 4 (number of panelists) / Urine Odor Ranking 6 (number of panelists) / Urine Odor Ranking 7 (number of panelists) / Urine Odor Ranking 1 (number of panelists) / Urine Odor Ranking 3 (number of panelists) / Urine Odor Ranking 5 (number of panelists): 8 millimolar in urine, scale 1 to 7, 7 most malodorous. On the set-up: species or system Human. The source says:
Powders of the aforementioned quinone compounds (commercially available from Sigma-Aldrich Chemical Co., Inc. of St. Louis, Missouri and Noveon Hilton Davis, Inc. of Cincinnati, Ohio) were weighed and placed into the mason jars containing 50 milliliters of urine so that the final concentration of the powder was 8 millimolar (equivalent to 0.5 wt. %).
To aid in the assessment of the quinone compounds, panelists were asked to rank the mason jars from least to most malodorous (on a scale from 1 to 7, with 7 being the most malodors). The results are set forth below in Tables 12 and 13.

Series [5] in a line: Example 6 urine odor panel ranking. The following applies: as Example 5, 1 least, 8 most urine malodor. On the set-up: species or system Human. The source says: The quinone compounds chosen for this example were Alizarin Blue Black B, Remazol Brilliant Blue R and Acid Green 25. The results are set forth below in Tables 19 and 20.
[6] abbreviates: Example 5 Group A, 8 mM in urine, 1 least, 8 most urine malodor.
The mark [7] stands for this setting: Example 5, 8 mM in 50 milliliters of urine.
The mark [8] stands for this setting: Example 7, 16 mM in 50 milliliters of urine.
The mark [9] stands for this setting: Example 5 Group B, 8 mM in urine, 1 least, 8 most urine malodor.

13 compounds from patent publication US20070048247A1, “Deodorizing tablets” (Kimberly-Clark Worldwide, Inc., priority 2005, published 2007) can be followed below.

In the case of `CC(=O)N(C)c1ccc(Nc2cc(S(=O)(=O)[O-])c(N)c3c2C(=O)c2ccccc2C3=O)cc1.[Na+]` [Acid Blue 41], in series [1] (setting [6]), the “Average Rankings (Group A), Avg. Score” value came out at 5; the “Urine Odor Ranking 4 (number of panelists)” value amounted to 1; the “Urine Odor Ranking 5 (number of panelists)” value is on record as 2; the “Urine Odor Ranking 6 (number of panelists)” value is 1. Besides, the “Soluble?” value in series [2] (setting [7]) is listed as “Yes”. The “Soluble?” value in series [2] (setting [8]) is on record as “Yes”. In series [3] (Example 7 Group C), the “Average Rankings (Group C), Avg. Score” value was determined as 3.4; the “Urine Odor Ranking 2 (number of panelists)” value is 2; the “Urine Odor Ranking 3 (number of panelists)” value is reported as 2; the “Urine Odor Ranking 7 (number of panelists)” value was 1.
With `Cc1ccc(Nc2ccc(O)c3c2C(=O)c2ccccc2C3=O)c(S(=O)(=O)[O-])c1.[Na+]` [Acid Violet 43], in series [1] (setting [6]), the “Average Rankings (Group A), Avg. Score” value was 4.75; the “Urine Odor Ranking 2 (number of panelists)” value was found to be 2; the “Urine Odor Ranking 7 (number of panelists)” value was determined as 1; the “Urine Odor Ranking 8 (number of panelists)” value is 1. Besides, the “Soluble?” value in series [2] (setting [7]) is given as “Yes”. Also, in series [2] (setting [8]), the “Soluble?” value was “No”. Further, in series [3] (Example 7 Group D), the “Average Rankings (Group D), Avg. Score” value is recorded as 4.2; the “Urine Odor Ranking 1 (number of panelists)” value was determined as 1; the “Urine Odor Ranking 3 (number of panelists)” value is recorded as 1; the “Urine Odor Ranking 4 (number of panelists)” value was 1. Further, in series [3] (Example 7 Group D), the “Urine Odor Ranking 5 (number of panelists)” value is listed as 1 and the “Urine Odor Ranking 8 (number of panelists)” value turned out to be 1.
As for `O=C1c2ccccc2C(=O)c2c(O)ccc(O)c21` [1,4-Dihydroxyanthraquinone, 1,4-dihydroxyanthraquinone], in series [4], the “Average Rankings, Avg. Score” value was determined as 4.75; the “Urine Odor Ranking 2 (number of panelists)” value is listed as 1; the “Urine Odor Ranking 4 (number of panelists)” value turned out to be 1; the “Urine Odor Ranking 6 (number of panelists)” value was determined as 1. Also, the “Urine Odor Ranking 7 (number of panelists)” value in series [4] is listed as 1.
Take Acid Black 48: the “Soluble?” value in series [2] (setting [8]) was “Somewhat”. Also, in series [3] (Example 7 Group C), the “Average Rankings (Group C), Avg. Score” value was 7.2; the “Urine Odor Ranking 2 (number of panelists)” value is recorded as 1; the “Urine Odor Ranking 6 (number of panelists)” value is on record as 1; the “Urine Odor Ranking 8 (number of panelists)” value is 1. For the same compound, in series [3] (Example 7 Group C), the “Urine Odor Ranking 10 (number of panelists)” value is given as 2.
Regarding `Nc1c(S(=O)(=O)O)cc(Nc2ccc(Nc3nc(Cl)nc(Nc4cccc(S(=O)(=O)O)c4)n3)c(S(=O)(=O)O)c2)c2c1C(=O)c1ccccc1C2=O` [Procion Blue HB, Reactive Blue 2 (Procion Blue HB)], in series [1] (setting [6]), the “Average Rankings (Group A), Avg. Score” value is 6.5; the “Urine Odor Ranking 5 (number of panelists)” value was 1; the “Urine Odor Ranking 6 (number of panelists)” value turned out to be 1; the “Urine Odor Ranking 7 (number of panelists)” value is listed as 1. The “Urine Odor Ranking 8 (number of panelists)” value in series [1] (setting [6]) turned out to be 1. Further, in series [4], the “Average Rankings, Avg. Score” value worked out at 3.5; the “Urine Odor Ranking 1 (number of panelists)” value came out at 2; the “Urine Odor Ranking 2 (number of panelists)” value is on record as 1; the “Urine Odor Ranking 4 (number of panelists)” value was 1. For the same compound, in series [4], the “Urine Odor Ranking 7 (number of panelists)” value is 1. In addition, the “Soluble?” value in series [2] (Example 4, 8 millimolar in 50 milliliters of urine) was “Yes”. The “Soluble?” value in series [2] (setting [7]) is given as “Yes”. Besides, the “Soluble?” value in series [2] (setting [8]) is given as “Yes”. Besides, in series [3] (Example 7 Group F), the “Average Rankings (Group F), Avg. Score” value is given as 5.2; the “Urine Odor Ranking 1 (number of panelists)” value is 1; the “Urine Odor Ranking 4 (number of panelists)” value is listed as 1; the “Urine Odor Ranking 5 (number of panelists)” value is reported as 1. In series [3] (Example 7 Group F), the “Urine Odor Ranking 6 (number of panelists)” value is 1, the “Urine Odor Ranking 9 (number of panelists)” value is given as 1 and the “Urine Odor Ranking 10 (number of panelists)” value is recorded as 1.
In the case of `CCNc1ccc(NCC)c2c1C(=O)c1ccccc1C2=O` [Solvent Blue 59], in series [4], the “Average Rankings, Avg. Score” value turned out to be 5.25; the “Urine Odor Ranking 3 (number of panelists)” value is on record as 1; the “Urine Odor Ranking 5 (number of panelists)” value is 1; the “Urine Odor Ranking 6 (number of panelists)” value is listed as 1. In series [4], the “Urine Odor Ranking 7 (number of panelists)” value is reported as 1.
Take `Cc1ccc(Nc2ccc(Nc3ccc(C)cc3)c3c2C(=O)c2ccccc2C3=O)cc1` [Solvent Green 3]: in series [4], the “Average Rankings, Avg. Score” value is 3.75; the “Urine Odor Ranking 2 (number of panelists)” value is 1; the “Urine Odor Ranking 3 (number of panelists)” value is given as 1; the “Urine Odor Ranking 4 (number of panelists)” value is given as 1. Besides, the “Urine Odor Ranking 6 (number of panelists)” value in series [4] came to 1.
As for `Cc1c(C(=O)O)c(O)cc2c1C(=O)c1c(O)c([C@@H]3O[C@H](CO)[C@@H](O)[C@H](O)[C@H]3O)c(O)c(O)c1C2=O` [Carminic Acid, Natural Red 4 (Carminic Acid)], in series [3] (Example 7 Group E), the “Average Rankings (Group E), Avg. Score” value is recorded as 3.6; the “Urine Odor Ranking 1 (number of panelists)” value was found to be 2; the “Urine Odor Ranking 3 (number of panelists)” value worked out at 1; the “Urine Odor Ranking 4 (number of panelists)” value was 1. The “Urine Odor Ranking 9 (number of panelists)” value in series [3] (Example 7 Group E) amounted to 1.
On to `Nc1ccc(O)c2c1C(=O)c1ccccc1C2=O` [1-Amino-4-Hydroxyanthraquinone, 1-amino-4-hydroxyanthraquinone], for which, in series [4], the “Average Rankings, Avg. Score” value is given as 5; the “Urine Odor Ranking 3 (number of panelists)” value worked out at 1; the “Urine Odor Ranking 5 (number of panelists)” value was 2; the “Urine Odor Ranking 7 (number of panelists)” value came out at 1.
As for `Cc1cc(C)c(S(=O)(=O)[O-])c(C)c1Nc1ccc(Nc2c(C)cc(C)c(S(=O)(=O)[O-])c2C)c2c1C(=O)c1ccccc1C2=O.[Na+].[Na+]` [Acid Blue 80], in series [1] (setting [9]), the “Average Rankings (Group B), Avg. Score” value is listed as 6.25; the “Urine Odor Ranking 4 (number of panelists)” value was 1; the “Urine Odor Ranking 5 (number of panelists)” value was 1; the “Urine Odor Ranking 8 (number of panelists)” value amounted to 2. In addition, the “Soluble?” value in series [2] (setting [7]) is “Yes”. The “Soluble?” value in series [2] (setting [8]) was “Mostly”. In series [3] (Example 7 Group F), the “Average Rankings (Group F), Avg. Score” value was found to be 5.4; the “Urine Odor Ranking 1 (number of panelists)” value amounted to 1; the “Urine Odor Ranking 5 (number of panelists)” value was 1; the “Urine Odor Ranking 6 (number of panelists)” value turned out to be 1. Besides, in series [3] (Example 7 Group F), the “Urine Odor Ranking 7 (number of panelists)” value is on record as 1 and the “Urine Odor Ranking 8 (number of panelists)” value is reported as 1.
Consider `CC(=O)Nc1ccc(Nc2cc(S(=O)(=O)[O-])c(N)c3c2C(=O)c2ccccc2C3=O)cc1.[Na+]` [Acid Blue 40], for which the “odor reduction performance (in words)” value in series [1] (Example 5 Group B) is “performed well”. Moreover, in series [1] (setting [9]), the “Average Rankings (Group B), Avg. Score” value worked out at 4.25; the “Urine Odor Ranking 2 (number of panelists)” value amounted to 1; the “Urine Odor Ranking 4 (number of panelists)” value came to 2; the “Urine Odor Ranking 7 (number of panelists)” value is recorded as 1. For the same compound, in series [2] (setting [7]), the “Soluble?” value is reported as “Yes”. Further, the “Soluble?” value in series [2] (setting [8]) is recorded as “Somewhat”. Also, in series [3] (Example 7 Group F), the “Average Rankings (Group F), Avg. Score” value worked out at 3.8; the “Urine Odor Ranking 1 (number of panelists)” value is on record as 1; the “Urine Odor Ranking 2 (number of panelists)” value was 1; the “Urine Odor Ranking 3 (number of panelists)” value is listed as 1. Moreover, in series [3] (Example 7 Group F), the “Urine Odor Ranking 4 (number of panelists)” value is given as 1 and the “Urine Odor Ranking 9 (number of panelists)” value came out at 1.
In the case of `Nc1c(S(=O)(=O)[O-])cc(Nc2cccc(S(=O)(=O)CCOS(=O)(=O)[O-])c2)c2c1C(=O)c1ccccc1C2=O.[Na+].[Na+]` [Remazol Brilliant Blue R, Reactive Blue 19 (Remazol Brilliant Blue R)], the “odor reduction performance (in words)” value in series [1] (Example 5 Group B) is “performed well”. Also, in series [1] (setting [9]), the “Average Rankings (Group B), Avg. Score” value was found to be 3; the “Urine Odor Ranking 1 (number of panelists)” value was 2; the “Urine Odor Ranking 4 (number of panelists)” value is listed as 1; the “Urine Odor Ranking 6 (number of panelists)” value is recorded as 1. Moreover, in series [4], the “reducing urine odor (in words)” value is listed as “most effective in reducing urine odor”; the “Average Rankings, Avg. Score” value is reported as 1.5; the “Urine Odor Ranking 1 (number of panelists)” value stood at 2; the “Urine Odor Ranking 2 (number of panelists)” value is reported as 2. Further, in series [3] (Example 7 Group E), the “Average Rankings (Group E), Avg. Score” value was 3.4; the “Urine Odor Ranking 1 (number of panelists)” value was 1; the “Urine Odor Ranking 2 (number of panelists)” value is on record as 2; the “Urine Odor Ranking 3 (number of panelists)” value turned out to be 1. Moreover, the “Urine Odor Ranking 9 (number of panelists)” value in series [3] (Example 7 Group E) is listed as 1. Besides, in series [5], the “Average Rankings, Avg. Score” value was 4.75; the “Urine Odor Ranking 2 (number of panelists)” value amounted to 1; the “Urine Odor Ranking 3 (number of panelists)” value was found to be 1; the “Urine Odor Ranking 7 (number of panelists)” value is 2.
For `Cc1cc(O)c2c(c1)C(=O)c1cc(O)cc(O)c1C2=O` [Emodin], the “Soluble?” value in series [2] (setting [8]) is recorded as “No”. Moreover, in series [3] (Example 7 Group C), the “Average Rankings (Group C), Avg. Score” value is given as 7.8; the “Urine Odor Ranking 5 (number of panelists)” value was found to be 1; the “Urine Odor Ranking 8 (number of panelists)” value is 2; the “Urine Odor Ranking 9 (number of panelists)” value is on record as 2.
